Measurements taken from ChEMBL document CHEMBL4020771, “Activity of resveratrol triesters against primary acute lymphoblastic leukemia cells” (Bioorg Med Chem Lett, 2017).
Active and inactive are the calls of the source. No cut-off for these calls is given here.

Columns and labels:
[1] = Cytotoxicity against human ALL5 cells after 120 hrs by MTT method; format: functional, cell-based; settings: ALL5, 120 h
[2] = Cell cycle arrest in human ALL5 cells assessed as accumulation at S phase at 25 uM after 96 hrs by propidium iodide staining based flow cytometric analysis (reference value: 11.7 %); format: functional
[3] = Cell cycle arrest in human ALL5 cells assessed as accumulation at subG1 phase at 25 uM after 120 hrs by propidium iodide staining based flow cytometric analysis (reference value: 3.44 %); format: functional
[4] = Cell cycle arrest in human ALL5 cells assessed as accumulation at G1 phase at 25 uM after 48 hrs by propidium iodide staining based flow cytometric analysis (reference value: 70.5 %); format: functional
[5] = Cell cycle arrest in human ALL5 cells assessed as accumulation at subG1 phase at 25 uM after 96 hrs in presence of CDK4/6 inhibitor palbociclib by propidium iodide staining based flow cytometric analysis (reference value: 1.47%); format: functional
[6] = Cell cycle arrest in human ALL5 cells assessed as accumulation at S phase at 25 uM after 48 hrs by propidium iodide staining based flow cytometric analysis (reference value: 11.7 %); format: functional
[7] = Cell cycle arrest in human ALL5 cells assessed as accumulation at G2 phase at 25 uM after 120 hrs by propidium iodide staining based flow cytometric analysis (reference value: 13.6 %); format: functional
[8] = Cell cycle arrest in human ALL5 cells assessed as accumulation at G2 phase at 25 uM after 48 hrs by propidium iodide staining based flow cytometric analysis (reference value: 13.6 %); format: functional
[9] = Cell cycle arrest in human ALL5 cells assessed as accumulation at S phase at 25 uM after 120 hrs by propidium iodide staining based flow cytometric analysis (reference value: 11.7 %); format: functional
[10] = Cell cycle arrest in human ALL5 cells assessed as accumulation at G2 phase at 25 uM after 96 hrs by propidium iodide staining based flow cytometric analysis (reference value: 13.6 %); format: functional
[11] = Cell cycle arrest in human ALL5 cells assessed as accumulation at G1 phase at 25 uM after 96 hrs in presence of CDK4/6 inhibitor palbociclib by propidium iodide staining based flow cytometric analysis (reference value: 97.8%); format: functional
[12] = tested on: HeLa; test: Cytotoxicity against human HeLa cells up to 10 uM after 72 hrs by MTT method; format: functional, cell-based
[13] = tested on: ALL5; test: Increase in p53 expression in human ALL5 cells at 25 uM after 96 hrs by Western blot analysis; format: functional, cell-based
[14] = Cell cycle arrest in human ALL5 cells assessed as accumulation at subG1 phase at 25 uM after 48 hrs by propidium iodide staining based flow cytometric analysis (reference value: 3.44 %); format: functional
[15] = Cell cycle arrest in human ALL5 cells assessed as accumulation at G1 phase at 25 uM after 120 hrs by propidium iodide staining based flow cytometric analysis (reference value: 70.5 %); format: functional
[16] = Cell cycle arrest in human ALL5 cells assessed as accumulation at G1 phase at 25 uM after 96 hrs by propidium iodide staining based flow cytometric analysis (reference value: 70.5 %); format: functional
[17] = Cell cycle arrest in human ALL5 cells assessed as accumulation at G2 phase at 25 uM after 96 hrs in presence of CDK4/6 inhibitor palbociclib by propidium iodide staining based flow cytometric analysis (reference value: 0.64%); format: functional
[18] = Cell cycle arrest in human ALL5 cells assessed as accumulation at S phase at 25 uM after 96 hrs in presence of CDK4/6 inhibitor palbociclib by propidium iodide staining based flow cytometric analysis (reference value: 0.07%); format: functional
[19] = Cell cycle arrest in human ALL5 cells assessed as accumulation at subG1 phase at 25 uM after 96 hrs by propidium iodide staining based flow cytometric analysis (reference value: 3.44 %); format: functional
[20] = Cell cycle arrest in human ALL5 cells assessed as accumulation at subG1 phase at 17 uM after 96 hrs by propidium iodide staining based flow cytometric analysis (reference value: 3.44 %); format: functional
[21] = Cell cycle arrest in human ALL5 cells assessed as accumulation at G1 phase at 17 uM after 48 hrs by propidium iodide staining based flow cytometric analysis (reference value: 70.5 %); format: functional
[22] = Cell cycle arrest in human ALL5 cells assessed as accumulation at S phase at 17 uM after 120 hrs by propidium iodide staining based flow cytometric analysis (reference value: 11.7 %); format: functional
[23] = Cell cycle arrest in human ALL5 cells assessed as accumulation at subG1 phase at 17 uM after 120 hrs by propidium iodide staining based flow cytometric analysis (reference value: 3.44 %); format: functional
[24] = Cell cycle arrest in human ALL5 cells assessed as accumulation at G2 phase at 17 uM after 96 hrs in presence of CDK4/6 inhibitor palbociclib by propidium iodide staining based flow cytometric analysis (reference value: 0.64%); format: functional
[25] = Cell cycle arrest in human ALL5 cells assessed as accumulation at G1 phase at 17 uM after 120 hrs by propidium iodide staining based flow cytometric analysis (reference value: 70.5 %); format: functional
[26] = Cell cycle arrest in human ALL5 cells assessed as accumulation at G2 phase at 17 uM after 48 hrs by propidium iodide staining based flow cytometric analysis (reference value: 13.6 %); format: functional
[27] = Cell cycle arrest in human ALL5 cells assessed as accumulation at G2 phase at 17 uM after 96 hrs by propidium iodide staining based flow cytometric analysis (reference value: 13.6 %); format: functional
[28] = Cell cycle arrest in human ALL5 cells assessed as accumulation at S phase at 17 uM after 96 hrs by propidium iodide staining based flow cytometric analysis (reference value: 11.7 %); format: functional
[29] = Cell cycle arrest in human ALL5 cells assessed as accumulation at S phase at 17 uM after 48 hrs by propidium iodide staining based flow cytometric analysis (reference value: 11.7 %); format: functional
[30] = Cell cycle arrest in human ALL5 cells assessed as accumulation at S phase at 17 uM after 96 hrs in presence of CDK4/6 inhibitor palbociclib by propidium iodide staining based flow cytometric analysis (reference value: 0.07%); format: functional
[31] = Cell cycle arrest in human ALL5 cells assessed as accumulation at subG1 phase at 17 uM after 48 hrs by propidium iodide staining based flow cytometric analysis (reference value: 3.44 %); format: functional
[32] = Cell cycle arrest in human ALL5 cells assessed as accumulation at G1 phase at 17 uM after 96 hrs by propidium iodide staining based flow cytometric analysis (reference value: 70.5 %); format: functional
[33] = Cell cycle arrest in human ALL5 cells assessed as accumulation at G1 phase at 17 uM after 96 hrs in presence of CDK4/6 inhibitor palbociclib by propidium iodide staining based flow cytometric analysis (reference value: 97.8%); format: functional
[34] = Cell cycle arrest in human ALL5 cells assessed as accumulation at subG1 phase at 17 uM after 96 hrs in presence of CDK4/6 inhibitor palbociclib by propidium iodide staining based flow cytometric analysis (reference value: 1.47%); format: functional
[35] = tested on: ALL5; test: Increase in p53 expression in human ALL5 cells at 17 uM after 96 hrs by Western blot analysis; format: functional, cell-based
[36] = Cell cycle arrest in human ALL5 cells assessed as accumulation at G2 phase at 17 uM after 120 hrs by propidium iodide staining based flow cytometric analysis (reference value: 13.6 %); format: functional
[37] = Cell cycle arrest in human ALL5 cells assessed as accumulation at subG1 phase at 1 uM after 72 hrs by propidium iodide staining based flow cytometric analysis (reference value: 0.54 %); format: functional
[38] = Cell cycle arrest in human ALL5 cells assessed as accumulation at S phase at 1 uM after 72 hrs by propidium iodide staining based flow cytometric analysis (reference value: 15.2%); format: functional
[39] = Cell cycle arrest in human ALL5 cells assessed as accumulation at G2 phase at 1 uM after 72 hrs by propidium iodide staining based flow cytometric analysis (reference value: 19.1%); format: functional
[40] = Cell cycle arrest in human ALL5 cells assessed as accumulation at G1 phase at 1 uM after 72 hrs by propidium iodide staining based flow cytometric analysis (reference value: 64.4%); format: functional

Compound: CCCCCCCCCC(=O)Oc1ccc(/C=C/c2cc(OC(=O)CCCCCCCCC)cc(OC(=O)CCCCCCCCC)c2)cc1
- IC50 [1]: > 10 µM

Compound: CC(C)C(=O)Oc1ccc(/C=C/c2cc(OC(=O)C(C)C)cc(OC(=O)C(C)C)c2)cc1
- Activity [2]: 6.34%
- Activity [3]: 63.7%
- Activity [4]: 72.5%
- Activity [5]: 5.76%
- Activity [6]: 2.14%
- Activity [7]: 0.49%
- Activity [8]: 2.02%
- Activity [9]: 9.11%
- Activity [10]: 0.34%
- Activity [11]: 93.6%
- Activity [12]: inactive
- Activity [13]: Active
- Activity [14]: 23.1%
- Activity [15]: 26.1%
- IC50 [1]: 5.1 µM
- Activity [16]: 44.8%
- Activity [17]: 0.45%
- Activity [18]: 0.21%
- Activity [19]: 48.1%

Compound: COc1cc(C(=O)Oc2ccc(/C=C/c3cc(OC(=O)c4cc(OC)c(OC)c(OC)c4)cc(OC(=O)c4cc(OC)c(OC)c(OC)c4)c3)cc2)cc(OC)c1OC
- IC50 [1]: > 10 µM

Compound: O=C(/C=C/c1ccc(O)cc1)Oc1ccc(/C=C/c2cc(OC(=O)/C=C/c3ccc(O)cc3)cc(OC(=O)/C=C/c3ccc(O)cc3)c2)cc1
- IC50 [1]: > 10 µM

Compound: CC(=O)Oc1ccc(/C=C/c2cc(OC(C)=O)cc(OC(C)=O)c2)cc1 [TRIACETYLRESVERATROL]
- Activity [20]: 54.6%
- Activity [21]: 62.5%
- Activity [22]: 12.5%
- Activity [23]: 60.9%
- Activity [24]: 0.54%
- Activity [25]: 18.5%
- Activity [26]: 3.23%
- Activity [27]: 13.1%
- Activity [28]: 16%
- Activity [29]: 20.8%
- Activity [30]: 0.06%
- Activity [31]: 12.3%
- Activity [12]: inactive
- Activity [32]: 15.5%
- Activity [33]: 98.1%
- IC50 [1]: 3.4 µM
- Activity [34]: 1.33%
- Activity [35]: Active
- Activity [36]: 7.59%

Compound: O=C(Oc1ccc(/C=C/c2cc(OC(=O)c3ccccc3)cc(OC(=O)c3ccccc3)c2)cc1)c1ccccc1
- IC50 [1]: > 10 µM

Compound: COc1cccc(C(=O)Oc2ccc(/C=C/c3cc(OC(=O)c4cccc(OC)c4OC)cc(OC(=O)c4cccc(OC)c4OC)c3)cc2)c1OC
- IC50 [1]: > 10 µM

Compound: O=C(/C=C/c1cccc(O)c1)Oc1ccc(/C=C/c2cc(OC(=O)/C=C/c3cccc(O)c3)cc(OC(=O)/C=C/c3cccc(O)c3)c2)cc1
- IC50 [1]: 10 µM

Compound: COc1cc(/C=C/C(=O)Oc2ccc(/C=C/c3cc(OC(=O)/C=C/c4ccc(O)c(OC)c4)cc(OC(=O)/C=C/c4ccc(O)c(OC)c4)c3)cc2)ccc1O
- IC50 [1]: 10 µM

Compound: COc1cc(/C=C/C(=O)Oc2ccc(/C=C/c3cc(OC(=O)/C=C/c4cc(OC)c(O)c(OC)c4)cc(OC(=O)/C=C/c4cc(OC)c(O)c(OC)c4)c3)cc2)cc(OC)c1O
- IC50 [1]: > 10 µM

Compound: Oc1ccc(/C=C/c2cc(O)cc(O)c2)cc1 [RESVERATROL]
- IC50 [1]: 10.5 µM

Compound: CC(=O)c1c(C)c2cnc(Nc3ccc(N4CCNCC4)cn3)nc2n(C2CCCC2)c1=O [PALBOCICLIB]
- Activity [37]: 0.76%
- Activity [38]: 0.29%
- Activity [39]: 0.8%
- Activity [40]: 98.1%

Compound: O=C(Oc1ccc(/C=C/c2cc(OC(=O)c3c(Cl)cccc3Cl)cc(OC(=O)c3c(Cl)cccc3Cl)c2)cc1)c1c(Cl)cccc1Cl
- IC50 [1]: > 10 µM

Compound: O=C(CCl)Oc1ccc(/C=C/c2cc(OC(=O)CCl)cc(OC(=O)CCl)c2)cc1
- IC50 [1]: 10 to 10.5 µM

Compound: COc1ccc(/C=C/C(=O)Oc2ccc(/C=C/c3cc(OC(=O)/C=C/c4ccc(OC)c(OC)c4)cc(OC(=O)/C=C/c4ccc(OC)c(OC)c4)c3)cc2)cc1OC
- IC50 [1]: > 10 µM

Compound: CC(C)CC(=O)Oc1ccc(/C=C/c2cc(OC(=O)CC(C)C)cc(OC(=O)CC(C)C)c2)cc1
- Activity [2]: 5.14%
- Activity [3]: 69.9%
- Activity [4]: 66.4%
- Activity [5]: 7.6%
- Activity [6]: 9.6%
- Activity [7]: 0.86%
- Activity [8]: 6.99%
- Activity [9]: 4.32%
- Activity [10]: 2.2%
- Activity [11]: 91.6%
- Activity [12]: inactive
- Activity [13]: Active
- Activity [14]: 16.4%
- Activity [15]: 24.5%
- IC50 [1]: 4.9 µM
- Activity [16]: 32.5%
- Activity [17]: 0.46%
- Activity [18]: 0.28%
- Activity [19]: 59.4%

Compound: O=C(/C=C/c1ccccc1)Oc1ccc(/C=C/c2cc(OC(=O)/C=C/c3ccccc3)cc(OC(=O)/C=C/c3ccccc3)c2)cc1
- IC50 [1]: > 10 µM
